Article PMC6274357, “Antiprotozoal and Antiglycation Activities of Sesquiterpene Coumarins from Ferula narthex Exudate” (Molecules, 2016)
Converted amounts (≈) assume the structure as drawn. Each block holds one compound with its values, some of them ahead of it.

Key:
Escherichia coli = assay: Antibacterial screening, E. coli; format: cell-based
Experimental: (§1) Fractions and isolated compounds were evaluated for antimicrobial activity in an integrated screening panel as reported before.

Trypanosoma cruzi = assay: Antitrypanosomal activity, T. cruzi; format: cell-based; conditions: read-out: IC50 T. cruz.
Experimental: as §1

[1] = tested on: formation of Advanced Glycation Endproducts (AGEs), BSA-glucose; assay: BSA-glucose antiglycation assay; format: biochemical, bovine; conditions: for BSA-Glucose % Inhibition: at 0.25 mM (table footnote a)
Experimental: The BSA (bovine serum albumin) -glucose and BSA-MGO (methyl glyoxal) antiglycation assays were carried out as reported before. The test protocol is attached as Supplementary Materials. […]
1. Antiglycation Assay (BSA-Glucose Assay)
The antiglycation assay was performed according to the method developed by Matsuura et al.
(2002) with minor modifications. The reaction mixture (300 μL) contained bovine serum albumin
(BSA) (10 mg/mL, 135 μL), D-glucose (500 mM, 135 μL) dissolved in phosphate buffer (50 mM, pH
7.4, containing sodium azide (0.02%, added to prevent bacterial growth) and test compounds (30 μL),
at different final concentrations (1.5–0.023 mM for isolated constituents or 100–1.17 μg/mL for
extracts) dissolved in 100 % DMSO. The mixtures were incubated at 60 °C for 48 h. After incubation,
the reaction mixture was allowed to cool down at room temperature. Then 100 μL reaction mixture
was transferred to a new plastic tube (1.5 mL) and the reaction was stopped by adding 10 μL of 100%
(w/v) trichloroacetic acid (TCA) and to precipitate proteins. The TCA-added mixture was kept at 4 °C
for 10 min, followed by centrifugation (14,000 rpm, 4 °C, 4 min). The supernatant containing unreacted
D-glucose, test sample and interfering substances was discarded, whereas the precipitate containing
AGEs-BSA was redissolved with 0.8 mL alkaline PBS (137 mM NaCl, 8.1 mM Na2HPO4, 2.68 mM KCl,
1.47 mM KH2PO4, pH 10). The change in fluorescence intensity (excitation 335 nm, emission 385 nm;
excitation 370, emission 440) due to formation of AGEs was monitored by spectrofluorometry
(Tecan™ Infinite M200, Giessen, The Netherlands). In order to eliminate interference by autofluorescenc e
of the test compounds, a parallel incubation of test substance with BSA at 60 °C without D-glucose
was performed for all samples. Quercetin (0.5–0.0312 mM final concentration) and aminoguanidine
(3–0.046 mM final concentration) were used as reference compounds.
2. The AGEs Inhibition was Calculated as
% inhibition = {1 − (FBSA + glucose + test substance − FBSA + test substance)/(FBSA
+ glucose − FBSA)} × 100 (1)
where F is the fluorescence intensity.
calculated using Sigma plot® 13.0. […]

[2] = tested on: formation of Advanced Glycation Endproducts (AGEs), BSA-MGO (methyl glyoxal); assay: BSA-MGO antiglycation assay; format: biochemical, bovine
Experimental: The BSA (bovine serum albumin) -glucose and BSA-MGO (methyl glyoxal) antiglycation assays were carried out as reported before. The test protocol is attached as Supplementary Materials.
Supplementary Materials: Antiprotozoal and
Antiglycation Activities of Sesquiterpene Coumarins
from Ferula narthex Exudate […]
2. The AGEs Inhibition was Calculated as […]
3. Protein-Glyoxal Interaction (BSA-MGO Assay)
The antiglycation assay using methylgloxyl (MGO) was performed according to the method
developed by Peng et al. (2007) with slight modifications. Briefly, methylglyoxal (135 μL, 5.75 mM)
was incubated with BSA (135 μL, 10 mg/mL) dissolved in phosphate buffer (50 mM, pH 7.4,
containing sodium azide (0.02%), added to prevent bacterial growth) and test compounds (30 μL) at
different final concentrations (1.5–0.023 mM) in 100% DMSO. The reaction mixture was incubated at
37 °C for one week. Control solutions only contained methylglyoxal (135 μL, 5.75 mM) BSA (135 μL,
1 0 mg/mL) and DMSO (100%) only. The blank samples of similar composition were also prepared
simultaneously and kept at 4 °C for one week. The change in fluorescence intensity (excitation
335 nm, emission 385 nm; excitation 370, emission 440) due to formation of AGEs was monitored by
spectrofluorometry (Tecan® Infinite M200, Giessen, The Netherlands). Aminoguanidine (3–0.046 mM
final concentration) was used as reference compound. The AGEs inhibition was calculated as
% AGEs inhibition = [1 − (S − Sb)/(C − Cb)] × 100 (2)
where S and C were fluorescence of test samples (in DMSO) and control (test mixtures containing
only DMSO) incubated at 37 °C, and where Sb and Cb were fluorescence for samples incubated at 4 °C. […]

[3] = tested on: MRC-5: Human fetal lung fibroblasts; assay: Cytotoxicity on MRC-5 cells; format: cell-based; conditions: MRC5
Experimental: as §1

Plasmodium falciparum K1 = assay: Antiplasmodial activity; format: cell-based; conditions: K1, read-out: IC50 Pf-K1
Experimental: as §1

Trypanosoma brucei = assay: Antitrypanosomal activity, T. brucei; format: cell-based; conditions: read-out: IC50 T. bruc.
Experimental: as §1

Leishmania infantum = assay: Antileishmanial activity, L. infantum; format: cell-based
Experimental: as §1

[4] = tested on: Peritoneal Murine Macrophages (PMM); assay: Cytotoxicity on peritoneal murine macrophages; format: cell-based; conditions: Mus musculus, Macrophage
Experimental: as §1

[5] = tested on: formation of Advanced Glycation Endproducts (AGEs), BSA-MGO (methyl glyoxal); assay: BSA-MGO antiglycation assay; format: biochemical, bovine; conditions: at 2 mM
[6] = tested on: Leishmania promastigote stage; design: method as in doi:10.1016/j.phytol.2014.04.009; conditions: cited from earlier work
Staphylococcus aureus = assay: Antibacterial screening, S. aureus; format: cell-based
Experimental: as §1

Microsporum canis = assay: Antifungal screening, M. canis; format: cell-based
Experimental: as §1

Aspergillus fumigatus = assay: Antifungal screening, A. fumigatus; format: cell-based
Experimental: as §1

SMILES: O=C(N[C@H](CO)[C@H](O)c1ccc([N+](=O)[O-])cc1)C(Cl)Cl [chloramphenicol]
- IC50 (Escherichia coli): 4.9 µM

SMILES: CC(C)=CCC(O)/C(C)=C/C(O)C/C(C)=C/COc1ccc2ccc(=O)oc2c1 (centres unmarked) [Compound 4, Asacoumarin A]
- IC50 [3]: 11.7 µM
- IC50 (Plasmodium falciparum K1): 1.3 µM
- IC50 (Trypanosoma brucei): 32.6 µM
- IC50 (Trypanosoma cruzi): 10.5 µM
- IC50 (Leishmania infantum): 12.7 µM
- IC50 [4]: 32 µM
- IC50 [1]: 1830 µM
- BSA-MGO IC50 [2]: the 50% inhibition level was not reached
- BSA-MGO % Inhibition [5]: 35%

SMILES: CC(=O)O[C@H](CC/C(C)=C/CC/C(C)=C/COc1ccc2ccc(=O)oc2c1)C(C)(C)O [Compound 6, 10′R-Acetyl-karatavacinol]
- BSA-Glucose IC50 [1]: did not reach the 50% inhibition level
- BSA-Glucose % Inhibition [1]: 36%
- BSA-MGO IC50 [2]: the 50% inhibition level was not reached
- BSA-MGO % Inhibition [5]: 20%

SMILES: CC1=CC(=O)[C@@H]2C(C)(C)[C@H](O)CC[C@@]2(C)[C@@H]1COc1ccc2ccc(=O)oc2c1 [Compound 2, Ligupersin A]
- IC50 [1]: 410 µM
- BSA-MGO IC50 [2]: the 50% inhibition level was not reached
- BSA-MGO % Inhibition [5]: 40%

SMILES: C/C(=C\COc1ccc2ccc(=O)oc2c1)CC/C=C(\C)CC[C@@H](O)C(C)(C)O [Compound 5, 10′R-Karatavacinol]
- IC50 [3]: 20.4 µM
- IC50 (Plasmodium falciparum K1): 16 µM
- IC50 (Trypanosoma brucei): 32.4 µM
- IC50 (Trypanosoma cruzi): 9.4 µM
- IC50 (Leishmania infantum): 32.4 µM
- IC50 [4]: 32 µM
- BSA-Glucose IC50 [1]: did not reach the 50% inhibition level
- BSA-Glucose % Inhibition [1]: 32%
- IC50 [2]: 1830 µM

SMILES: N=C(N)NN [Aminoguanidine, reference compound]
- IC50 [1]: 1750 µM
- IC50 [2]: 150 µM

SMILES: CC1=CC[C@@H]2C(C)(C)[C@@H](O)CC[C@@]2(C)[C@@H]1COc1ccc2ccc(=O)oc2c1 [conferol]
- IC value, antileishmanial activity [6]: 11.51 µg/mL

SMILES: CC1=CC[C@@H]2C(C)(C)[C@H](O)CC[C@@]2(C)[C@@H]1COc1ccc2ccc(=O)oc2c1 [Compound 1, Feselol]
- IC50 [3]: 8 µM
- IC50 (Plasmodium falciparum K1): 22.4 µM
- IC50 (Trypanosoma brucei): 8.1 µM
- IC50 (Trypanosoma cruzi): 8.6 µM
- IC50 (Leishmania infantum): 6.8 µM
- IC50 [4]: 8 µM
- BSA-Glucose IC50 [1]: did not reach the 50% inhibition level
- BSA-Glucose % Inhibition [1]: 47%
- IC50 [2]: 1710 µM

SMILES: CC(=O)OC(CC=C(C)C)/C(C)=C/C(O)C/C(C)=C/COc1ccc2ccc(=O)oc2c1 (centres unmarked) [Compound 3, 8′-O-Acetyl-asacoumarin A]
- IC50 [3]: 31.7 µM
- IC50 (Plasmodium falciparum K1): 7.4 µM
- IC50 (Trypanosoma brucei): 32.4 µM
- IC50 (Trypanosoma cruzi): 19.1 µM
- IC50 (Leishmania infantum): 12.7 µM
- IC50 [4]: 32 µM
- BSA-Glucose IC50 [1]: did not reach the 50% inhibition level
- BSA-Glucose % Inhibition [1]: 44%
- IC50 [2]: 1030 µM

Now from value to compound:

- IC50 (Trypanosoma cruzi): 3.3 µM
SMILES: O=C(Cn1ccnc1[N+](=O)[O-])NCc1ccccc1 [benznidazole, reference compound]

- IC50 [1]: 230 µM
- IC50 [2]: 350 µM
SMILES: O=c1c(O)c(-c2ccc(O)c(O)c2)oc2cc(O)cc(O)c12 [Quercetin, reference compound]

- IC50 (Trypanosoma brucei): 0.03 µM
SMILES: Cc1ccc(C(=O)Nc2ccc(S(=O)(=O)O)c3cc(S(=O)(=O)O)cc(S(=O)(=O)O)c23)cc1NC(=O)c1cccc(NC(=O)Nc2cccc(C(=O)Nc3cc(C(=O)Nc4ccc(S(=O)(=O)O)c5cc(S(=O)(=O)O)cc(S(=O)(=O)O)c45)ccc3C)c2)c1 [suramine, reference compound]

- IC50 (Escherichia coli): 0.25 µg/mL
SMILES: COc1cc(Cc2cnc(N)nc2N)cc(OC)c1OC [trimethoprim]

- IC50 (Staphylococcus aureus): 11.2 µg/mL (≈ 15.3 µM)
SMILES: CC[C@H]1OC(=O)[C@H](C)[C@@H](O[C@H]2C[C@@](C)(OC)[C@@H](O)[C@H](C)O2)[C@H](C)[C@@H](O[C@@H]2O[C@H](C)C[C@H](N(C)C)[C@H]2O)[C@](C)(O)C[C@@H](C)C(=O)[C@H](C)[C@@H](O)[C@]1(C)O [erythromycin]

- IC50 (Microsporum canis): 0.11 µg/mL (≈ 0.377 µM)
- IC50 (Aspergillus fumigatus): 0.8 µM
SMILES: CN(C/C=C/C#CC(C)(C)C)Cc1cccc2ccccc12 [terbinafine]

- IC50 (Plasmodium falciparum K1): 0.16 µM
SMILES: CCN(CC)CCCC(C)Nc1ccnc2cc(Cl)ccc12 (centres unmarked) [chloroquine, reference compound]
